According to PMC7220823 (Chemistry (Weinheim an der Bergstrasse, Germany), 2020):

Tests used:
rocR = rocR (Pseudomonas aeruginosa, UniProt Q9HX69); assay: rocR-mediated CDN hydrolysis monitored by HPLC; assay type: biochemical, P. aeruginosa; conditions: 100 nM rocR, 10 μM CDN
DncV = DncV (Vibrio cholerae serotype O1, UniProt Q9KVG7); assay: DncV-mediated CDN synthesis, kinetics by HPLC; assay type: biochemical
[1] = parent nucleosides, from previous publications; cited from earlier work
[2] = 500 μM NTP, 37 °C, HPLC, CIAP-quenched, mean ± SD

rocR, sequence (Q9HX69 whole entry): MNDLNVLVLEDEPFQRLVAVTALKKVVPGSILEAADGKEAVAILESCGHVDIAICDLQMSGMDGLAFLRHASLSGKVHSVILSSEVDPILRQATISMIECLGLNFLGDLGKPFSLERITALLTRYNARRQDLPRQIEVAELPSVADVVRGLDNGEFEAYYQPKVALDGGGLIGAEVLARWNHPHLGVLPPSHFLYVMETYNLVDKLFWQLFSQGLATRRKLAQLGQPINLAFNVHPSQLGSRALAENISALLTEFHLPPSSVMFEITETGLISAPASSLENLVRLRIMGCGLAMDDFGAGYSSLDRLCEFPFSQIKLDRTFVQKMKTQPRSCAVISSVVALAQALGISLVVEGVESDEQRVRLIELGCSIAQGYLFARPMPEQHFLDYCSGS
DncV, sequence (Q9KVG7 whole entry): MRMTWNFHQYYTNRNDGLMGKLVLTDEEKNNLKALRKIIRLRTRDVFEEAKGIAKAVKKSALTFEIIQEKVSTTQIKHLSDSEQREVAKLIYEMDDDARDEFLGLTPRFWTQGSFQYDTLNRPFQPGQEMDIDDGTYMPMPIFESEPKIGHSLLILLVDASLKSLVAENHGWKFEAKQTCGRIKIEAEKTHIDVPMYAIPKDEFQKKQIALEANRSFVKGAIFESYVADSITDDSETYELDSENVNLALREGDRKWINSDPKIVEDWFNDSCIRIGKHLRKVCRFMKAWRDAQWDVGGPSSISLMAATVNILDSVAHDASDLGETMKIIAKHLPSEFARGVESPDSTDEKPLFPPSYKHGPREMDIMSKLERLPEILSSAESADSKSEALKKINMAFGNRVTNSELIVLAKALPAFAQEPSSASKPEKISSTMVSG

SMILES | time to complete cleavage by rocR (rocR) [min] | k1 (enzyme/substrate association) (rocR; mean ± SD) [M⁻¹ s⁻¹] | k2 (cleavage reaction) (rocR; mean ± SD) [s⁻¹] | k−1 (enzyme/substrate dissociation) (rocR; mean ± SD) [s⁻¹] | k1 (formation of first phosphodiester linkage, S to I1) (DncV; [2]) | k2 (cyclization of intermediate I1 to product CDN) (DncV; [2]) | k3 (degradation of intermediate pppNpN to pNpN) (DncV; [2]) | k2/k3 (DncV; product formation versus degradation of the intermediate) | ε [1] [M⁻¹ cm⁻¹] | λabs^max [1] [nm] | λem^max [1] [nm] | ϕ (emission quantum yield) [1] | ϕε [1]
Nc1nc2c(ncn2[C@@H]2O[C@@H]3COP(=O)(O)O[C@H]4[C@@H](O)[C@H](n5cnc6c(=O)[nH]c(N)nc65)O[C@@H]4COP(=O)(O)O[C@H]3[C@H]2O)c(=O)[nH]1 [c-di-GMP] | ~3 | 3.96e+06 ± 70000 | 0.76 ± 0.03 | 1.15 ± 0.21 | (7.1 ±2.3) ×10^−6 μM^−1s^−1 | (7.4±2.1) ×10^−2 s^−1 | (6.4±0.3) ×10^−4 s^−1 | 116 |  |  |  |  | 
Nc1nc2c([C@@H]3O[C@H](CO)[C@@H](O)[C@H]3O)snc2c(=O)[nH]1 [^tzG] |  |  |  |  |  |  |  |  | 4870 | 333 | 459 | 2.5×10^−1 | 1203
